Measured values taken from patent US20160251341A1, “SUBSTITUTED TRIAZOLE COMPOUNDS AS SERINE PROTEASE INHIBITORS” (Verseon Corporation, priority 2015, published 2016).
Structures can show the parent of a compound that is named as a salt.

Biological target: T1, Human thrombin (Homo sapiens, UniProt P00734)
T1 construct: purchased Haematologic Technologies Inc
Test: Thrombin protease inhibition assay (chromogenic substrate S-2238)
Assay type: biochemical
Conditions: 3 nM human thrombin, 125 μM S-2238, 10 min pre-incubation, RT
Experimental: The thrombin activity reported herein (e.g., Table A) was obtained as follows. Human thrombin was obtained from Haematologic Technologies Inc. The chromogenic substrate S-2238 was obtained from DiaPharma. Thrombin was assayed in buffer containing 0.05 M Tris (pH 7.4), 0.015 M NaCl and 0.01% PEG-8000. The final concentration of enzyme used was 3 nM thrombin. The final concentration of substrate used was 125 μM S-2238 for thrombin. All assays were performed in 96-well microtiter plates at room temperature (RT). The enzyme and inhibitor were pre-incubated for 10 minutes then substrate was added and read at 405 nm in a SpectraMax Plus Spectrophotometer (Molecular Devices). Inhibitor IC50 values were determined by adding test compound as ten point, three-fold serial dilutions in buffer solution, as known in the art. The plate was read at 10 minutes after substrate addition. The IC50 was calculated by plotting the percent (%) inhibition against compound concentration and fitting the data to a constrained four parameter sigmoidal curve, as known in the art.

IC50 [nM]	Structure (SMILES)
≤ 100	COc1ccccc1C(=O)n1nc(C2CN(S(=O)(=O)N3CCCC3)C2)nc1NCc1ccc(Cl)s1 [Entry 49, N-[(5-chlorothiophen-2-yl)methyl]-1-(2-methoxybenzoyl)-3-[1-(pyrrolidine-1-sulfonyl)azetidin-3-yl]-1H-1,2,4-triazol-5-amine]
≤ 100	O=C(c1ccccc1)n1nc(C2CCNCC2)nc1NCc1ccc(Cl)s1 [Entry 15, 1-benzoyl-N-[(5-chlorothiophen-2-yl)methyl]-3-(piperidin-4-yl)-1H-1,2,4-triazol-5-amine hydrochloride]
≤ 100	O=C(c1cccc2c1OCCO2)n1nc(C2CCCO2)nc1NCc1ccc(Cl)s1 (stereo not drawn) [Entry 33, N-[(5-chlorothiophen-2-yl)methyl]-1-(2,3-dihydro-1,4-benzodioxine-5-carbonyl)-3-(oxolan-2-yl)-1H-1,2,4-triazol-5-amine]
≥ 100000	CC(C)(C)OC(=O)N1CCCC1c1n[nH]c(N)n1 (stereo not drawn) [Entry 67, tert-butyl 2-(5-amino-1H-1,2,4-triazol-3-yl)pyrrolidine-1-carboxylate]
≥ 100000	CC(C)(C)OC(=O)N1CCCC1c1n[nH]c(NCc2ccc(Cl)s2)n1 (stereo not drawn) [Entry 69, tert-butyl 2-(5-[(5-chlorothiophen-2-yl)methyl]amino-1H-1,2,4-triazol-3-yl)pyrrolidine-1-carboxylate]
≤ 100	O=C(c1ccsc1)n1nc(C2CCOC2)nc1NCc1ccc(Cl)s1 (stereo not drawn) [Entry 61, N-[(5-chlorothiophen-2-yl)methyl]-3-(oxolan-3-yl)-1-(thiophene-3-carbonyl)-1H-1,2,4-triazol-5-amine]
≤ 100	COc1ccccc1C(=O)n1nc(C2CCNCC2)nc1NCc1ccc(Cl)s1 [Entry 43, N-[(5-chlorothiophen-2-yl)methyl]-1-(2-methoxybenzoyl)-3-(piperidin-4-yl)-1H-1,2,4-triazol-5-amine]
≤ 100	COc1ccccc1C(=O)n1nc(C2CCN(C(N)=O)CC2)nc1NCc1ccc(Cl)s1 [Entry 31, 4-(5-[(5-chlorothiophen-2-yl)methyl]amino-1-(2-methoxybenzoyl)-1H-1,2,4-triazol-3-yl)piperidine-1-carboxamide]
≤ 100	COc1ccccc1C(=O)n1nc(C2CN(S(=O)(=O)N3CCCCC3)C2)nc1NCc1ccc(Cl)s1 [Entry 45, N-[(5-chlorothiophen-2-yl)methyl]-1-(2-methoxybenzoyl)-3-[1-(piperidine-1-sulfonyl)azetidin-3-yl]-1H-1,2,4-triazol-5-amine]
≤ 100	COc1ccccc1C(=O)n1nc(C2CCN(S(=O)(=O)c3ccccc3)CC2)nc1NCc1ccc(Cl)s1 [Entry 28, 3-[1-(benzenesulfonyl)piperidin-4-yl]-N-[(5-chlorothiophen-2-yl)methyl]-1-(2-methoxybenzoyl)-1H-1,2,4-triazol-5-amine]
≥ 100000	Nc1nc(C2CCOCC2)n[nH]1 [Entry 24, 3-(oxan-4-yl)-1H-1,2,4-triazol-5-amine]
≥ 100000	Nc1nc(C2CCCO2)n[nH]1 (stereo not drawn) [Entry 25, 3-(oxolan-2-yl)-1H-1,2,4-triazol-5-amine]
≥ 100000	CC(C)(C)OC(=O)N1CCC(c2n[nH]c(NCc3ccc(Cl)s3)n2)CC1 [Entry 75, tert-butyl 4-(5-[(5-chlorothiophen-2-yl)methyl]amino-1H-1,2,4-triazol-3-yl)piperidine-1-carboxylate]
≤ 100	COc1ccccc1C(=O)n1nc(C2CN(S(=O)(=O)N(C)C)C2)nc1NCc1ccc(Cl)s1 [Entry 19, 3-(5-[(5-chlorothiophen-2-yl)methyl]amino-1-(2-methoxybenzoyl)-1H-1,2,4-triazol-3-yl)-N,N-dimethylazetidine-1-sulfonamide]
≤ 100	O=C(c1ccsc1)n1nc(C2CCCO2)nc1NCc1ccc(Cl)s1 (stereo not drawn) [Entry 59, N-[(5-chlorothiophen-2-yl)methyl]-3-(oxolan-2-yl)-1-(thiophene-3-carbonyl)-1H-1,2,4-triazol-5-amine]
